Measured values: patent US20170008927A1, “ARTIFICIAL CATALYST SYSTEM SUBSTITUTABLE FOR IN VIVO ACYLATION FUNCTION” (The University of Tokyo, priority 2014, published 2017)

How the values were obtained:
Assay type in all cases: cell-based, human
MCF7 cells [1] = assay: Intracellular localization of FITC compounds, fluorescence microscope, MCF7 cells
Protocol: After compounds having FITC were added to the cells adhering on a glass coverslip, the cells were cultured, washed with PBS, fixed with 3.7% formaldehyde for 10 minutes, and washed with PBS twice.

MCF7 cells [2] = assay: Protein acetylation levels in treated MCF7 cells (chromosome and cytoplasm fractions), western blotting; settings: FIG. 6 comparison
Protocol: (§1) Hela cells and MCF7 cells were cultured using Dulbecco's modified Eagle's Medium (DMEM) media supplemented with 10% fetal bovine serum, 100 U/ml of penicillin, and 100 U/ml of streptomycin. The cells were cultured at 37° C. in the presence of 5% CO2.
(§2) The cell fractionation was carried out as follows. Approximately 10^6 cells were detached from a culture dish by a trypsin treatment. After washed with PBS, the cell pellets were suspended in a cooled, cell lysis buffer [50 mM Tris (pH=7.5), 300 mM NaCl, 0.3% Triton X-100, protease inhibitor cocktail, and 1 mM PMSF], and placed on ice for 30 minutes. After the centrifugation (4° C., 1500 rpm, 2 minutes), the supernatant was collected as a cytoplasm fraction. Meanwhile, the pellets were suspended in a cell lysis buffer containing 2 mM MgCl2 and Benzonase (Novagen, 71206), and placed on ice for 30 minutes. Then, 4 mM EDTA was added thereto to stop the reaction. After the centrifugation (4° C., 15000 rpm, 15 minutes), the supernatant was collected as a chromosome fraction.
(§3) Proteins were separated on a 4-20% SDS-PAGE gel, and transferred to a PVDF membrane, followed by blocking with 5% skim milk suspended in TBST for the reaction between the PVDF membrane and primary antibodies. The primary antibodies used were as follows. Anti-Histone H3 (acetyl K122) antibody (ab33309, Abcam), Acetylated-Lysine antibody (#9441, Cell Signaling), Anti-Histone H3 (acetyl K56) antibody (ab76307, Abcam), Anti-acetyl Histone H3 (Lys115) (#07-934, Millipore), Anti-P53 (DO-1) (sc-126, Santa cruz), Anti-Histone H3 (acetyl K9) antibody (ab4441, Abcam), Anti-Histone H3 (acetyl K14) antibody (ab52946, Abcam), Anti-Acetyl-Histone H4 (Ac-Lys16) (H9164, Sigma), Anti-Acetyl-Histone H4 (Ac-Lys5) (SAB4500307, Sigma), anti-acetyl tubulin (T6793, Sigma), Anti-p21/WAF1/Cip1 Antibody (05-655, Millipore), Anti-p27 (Kip1) (04-240, Millipore). […]

hTERT RPE-1 cells = assay: Protein acetylation levels in treated hTERT RPE-1 normal cells, western blotting; settings: FIG. 6 comparison
Protocol: as §2
Proteins were separated on a 4-20% SDS-PAGE gel, and transferred to a PVDF membrane, followed by blocking with 5% skim milk suspended in TBST for the reaction between the PVDF membrane and primary antibodies. The primary antibodies used were as follows. Anti-Histone H3 (acetyl K122) antibody (ab33309, Abcam), Acetylated-Lysine antibody (#9441, Cell Signaling), Anti-Histone H3 (acetyl K56) antibody (ab76307, Abcam), Anti-acetyl Histone H3 (Lys115) (#07-934, Millipore), Anti-P53 (DO-1) (sc-126, Santa cruz), Anti-Histone H3 (acetyl K9) antibody (ab4441, Abcam), Anti-Histone H3 (acetyl K14) antibody (ab52946, Abcam), Anti-Acetyl-Histone H4 (Ac-Lys16) (H9164, Sigma), Anti-Acetyl-Histone H4 (Ac-Lys5) (SAB4500307, Sigma), anti-acetyl tubulin (T6793, Sigma), Anti-p21/WAF1/Cip1 Antibody (05-655, Millipore), Anti-p27 (Kip1) (04-240, Millipore). After washing with TBST, the PVDF membrane was treated with a chemilluminescent detection reagent Luminata Forte Western HRP Substrate (Millipore), and the detection was performed using ImageQuant LAS 4000 (GE healthcare life sciences).
MCF7 cells, HeLa cells, and hTERT RPE-1 (hereinafter, RPE-1) cells which are normal cells were treated with an HDAC inhibitor (SAHA). […] On the other hand, there was no change in the acetylation of K56 present in the H3 globular region (FIG. 6).

Hela cells = assay: Protein acetylation levels in treated HeLa cells (chromosome and cytoplasm fractions), western blotting; settings: FIG. 6 comparison
Protocol: as §1, §2, §3

Row | Structure (SMILES) | intracellular localization (FITC signal) (MCF7 cells [1]) | acetylation of K56, H3 globular region (MCF7 cells [2]) | acetylations of lysines in the tail regions of histones H3 and H4 (MCF7 cells [2]) | tubulin acetylation in the cytoplasm (MCF7 cells [2]) | acetylation of K56, H3 globular region (hTERT RPE-1 cells) | acetylations of lysines in the tail regions of histones H3 and H4 (hTERT RPE-1 cells) | tubulin acetylation in the cytoplasm (hTERT RPE-1 cells) | acetylation of K56, H3 globular region (Hela cells) | acetylations of lysines in the tail regions of histones H3 and H4 (Hela cells) | tubulin acetylation in the cytoplasm (Hela cells)
1 | CC(=O)N(OCc1cn(CCOCCOCCOc2cc(C(=O)NCC(=O)N[C@@H](CCCNC(=N)N)C(=O)NC(CCCNC(=N)N)C(=O)N[C@@H](CCCNC(=N)N)C(=O)NC(CCCNC(=N)N)C(=O)N[C@@H](CCCNC(=N)N)C(=O)NC(CCCNC(=N)N)C(=O)N[C@@H](CCCNC(=N)N)C(=O)NC(CCCNC(=N)N)C(N)=O)cc(OCCOCCOCCn3cc(CON(C(C)=O)C(C)=O)nn3)c2OCCOCCOCCn2cc(CON(C(C)=O)C(C)=O)nn2)nn1)C(C)=O (stereo partly shown) [Compound 3NMD-8R] | successfully localized in the nucleus and the chromosomes | – | – | – | – | – | – | – | – | –
2 | O=C(CCCCCCC(=O)Nc1ccccc1)NO [SAHA] | – | no change | significantly enhanced | significantly enhanced | no change | significantly enhanced | significantly enhanced | no change | significantly enhanced | significantly enhanced
